Laboratory results published in US9763445B2, “Safened herbicidal compositions comprising a pyridine carboxylic acid herbicide” (Dow AgroSciences, LLC, priority 2014, dated 2017).

Key:
corn/maize (ZEAMX) = experiment: Postemergence greenhouse trial, % visual injury on corn/maize; format: in vivo, Zea mays; settings: for % visual injury, observed (Ob): ZEAMX
Method in brief: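 Injury was scored visually (0 = none, 100 = complete kill) 20–22 d after track-sprayer application at 187 L/ha, compared with solvent-sprayed controls. Test plants at the 2–3 true leaf stage; herbicide (g ae/ha) plus cloquintocet-mexyl safener (g ai/ha) in crop-oil-containing spray; expected mixture response by Colby.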

winter wheat (TRZAW) = experiment: Postemergence greenhouse trial, % visual injury on winter wheat; format: in vivo, Triticum aestivum
Procedure: (§1) Seeds of the desired test plant species were planted in Sun Gro MetroMix® 306 planting mixture, which typically has a pH of 6.0 to 6.8 and an organic matter content of about 30 percent, in plastic pots with a surface area of 103.2 square centimeters (cm^2). When required to ensure good germination and healthy plants, a fungicide treatment and/or other chemical or physical treatment was applied. The plants were grown for 7-36 days (d) in a greenhouse with an approximate 14-hour (h) photoperiod which was maintained at about 23° C. during the day and 22° C. during the night. Nutrients and water were added on a regular basis and supplemental lighting was provided with overhead metal halide 1000-Watt lamps as necessary. The plants were employed for testing when they reached the second or third true leaf stage.
(§2) Weighed amounts of technical material were dissolved in a volume of 97:3 volume per volume (v/v) acetone/dimethyl sulfoxide (DMSO) to stock solutions. […] The concentrated stock solutions were diluted with an aqueous mixture of 1.5% v/v of Agri-dex crop oil concentrate to provide the appropriate application rates. Compound requirements are based upon a 12 milliliter (mL) application volume at a rate of 187 liters per hectare (L/ha). Stocks solutions of the safeners were prepared following the same procedure. Spray solutions of the safeners and experimental compound mixtures were prepared by adding the stock solutions to the appropriate amount of dilution solution to form a 12 mL spray solution in two-way combinations. Formulated compounds were applied to the plant material with an overhead Mandel track sprayer equipped with 8002E nozzles calibrated to deliver 187 L/ha over an application area of 0.503 square meters (m^2) at a spray height of 18 inches (43 centimeters (cm)) above average plant canopy. Control plants were sprayed in the same manner with the solvent blank. All herbicide application (component a) rates are in g ae/ha and all safener (component b) rates are in g ai/ha.
(§3) The treated plants and control plants were placed in a greenhouse as described above and watered by sub-irrigation to prevent wash-off of the test compounds. After 20-22 d, the condition of the test plants as compared with that of the control plants was determined visually and scored on a scale of 0 to 100 percent where 0 corresponds to no injury and 100 corresponds to complete kill. The condition of the test plants was compared with that of the control plants as determined visually and scored on a scale of 0 to 100 percent, where 0 corresponds to no injury and 100 corresponds to complete kill. Colby's equation was used to determine the herbicidal effects expected from the mixtures.
(§4) The safener cloquintocet-mexyl was combined with compound 1, compound 2, compound 3, compound 7, compound 8, compound 9, compound 10, compound 11, compound 12, compound 13, compound 14, compound 15, compound 16, compound 17, compound 18, compound 19, and compound 20, and applied to spring wheat (TRZAS), winter wheat (TRZAW), and spring barley (HORVS) and the phytotoxicity of the herbicidal compositions was measured. […]

shepherd's purse (CAPBP) [1] = experiment: Postemergence greenhouse trial, % visual injury on shepherd's purse; format: in vivo, Capsella bursa-pastoris; settings: alone
Procedure: as §1, §2, §3, §4

cornflower (CENCY) [2] = experiment: Postemergence greenhouse trial, % visual injury on cornflower; format: in vivo, Centaurea cyanus or Cyanus segetum; settings: alone
Procedure: as §1, §2, §3, §4

nutsedge (CYPES) = experiment: Postemergence greenhouse trial, % visual injury on nutsedge; format: in vivo, Cyperus esculentus; settings: for % visual injury, observed (Ob): CYPES
Procedure: as §1, §2, §3
The safener cloquintocet-mexyl was combined with compound 1, compound 2, compound 4, compound 5, and compound 6, and applied to corn/maize (ZEAMX) and spring wheat (TRZAS) and the phytotoxicity of the herbicidal compositions was measured. In addition, the efficacy of the herbicidal composition on velvetleaf (ABUTH, Abutilon theophrasti), pigweed (AMARE, Amaranthus retroflexus), winter rape (BRSNW, Brassica napus), lambsquarters (CHEAL, Chenopodium album), thistle (CIRAR, Cirsium arvense), nutsedge (CYPES, Cyperus esculentus), poinsettia (EPHHL, Euphorbia heterophylla), wild buckwheat (POLCO, Polygonum convolvulus), giant foxtail (SETFA, Setaria faberi), and chickweed (STEME, Stellaria media) was evaluated. […]
The safener cloquintocet-acid and a number of agriculturally acceptable esters and salts (-mexyl, -dimethylammonium salt and -triethylammonium salt) were combined in varying ratios with compound 1 and applied to spring wheat (TRZAS), winter wheat (TRZAW), and spring barley (HORVS), and the phytotoxicity of the herbicidal compositions was measured. […]

cleavers (GALAP) = experiment: Postemergence greenhouse trial, % visual injury on cleavers; format: in vivo, Galium aparine
Procedure: as §1, §2, §3, §4

prickly lettuce (LACSE) = experiment: Postemergence greenhouse trial, % visual injury on prickly lettuce; format: in vivo, Lactuca serriola
Procedure: as §1, §2
as §3, with “mixtures. […]” for “mixtures.”

shepherd's purse (CAPBP) [3] = experiment: Postemergence greenhouse trial, % visual injury on shepherd's purse; format: in vivo, Capsella bursa-pastoris
cornflower (CENCY) [4] = experiment: Postemergence greenhouse trial, % visual injury on cornflower; format: in vivo, Centaurea cyanus or Cyanus segetum
[5] = compound 0 g/ha, CQC-m 4.375 g/ha
[6] = compound 0 g/ha, CQC-m 8.75 g/ha
[7] = compound 0 g/ha, CQC-m 17.5 g/ha

CCCCCC(C)OC(=O)COc1ccc(Cl)c2cccnc12 (stereo not shown) [CQC-m, cloquintocet-mexyl, reference compound]
0%: % visual injury, observed (Ob) (corn/maize (ZEAMX); safener alone 2.5 g/ha) | % visual injury, observed (Ob) (corn/maize (ZEAMX); safener alone 5 g/ha) | % visual injury, observed (Ob) (corn/maize (ZEAMX); safener alone 10 g/ha) | % visual injury, observed (Ob) (corn/maize (ZEAMX); safener alone 20 g/ha) | % visual injury, Ob (corn/maize (ZEAMX); alone, 35 g/ha) | % visual injury, Ob (winter wheat (TRZAW); TRZAW, compound 0 g/ha, CQC-m 35 g/ha) | % visual injury, Ob (winter wheat (TRZAW); TRZAW, compound 0 g/ha, CQC-m 70 g/ha) | % visual injury, observed (Ob) (winter wheat (TRZAW); TRZAW, safener alone 2.5 g/ha) | % visual injury, observed (Ob) (winter wheat (TRZAW); TRZAW, safener alone 5 g/ha) | % visual injury, observed (Ob) (winter wheat (TRZAW); TRZAW, safener alone 10 g/ha) | % visual injury, observed (Ob) (winter wheat (TRZAW); TRZAW, safener alone 20 g/ha) | % visual injury, Ob (winter wheat (TRZAW); alone, 35 g/ha) | % visual injury, Ob (winter wheat (TRZAW); alone, 70 g/ha) | % visual injury, Ob (shepherd's purse (CAPBP) [1]; 4.375 g/ha) | % visual injury, Ob (shepherd's purse (CAPBP) [1]; 8.75 g/ha) | % visual injury, Ob (shepherd's purse (CAPBP) [1]; 17.5 g/ha) | % visual injury, Ob (shepherd's purse (CAPBP) [1]; 35 g/ha) | % visual injury, Ob (shepherd's purse (CAPBP) [1]; 70 g/ha) | % visual injury, Ob (cornflower (CENCY) [2]; 4.375 g/ha) | % visual injury, Ob (cornflower (CENCY) [2]; 8.75 g/ha) | % visual injury, Ob (cornflower (CENCY) [2]; 35 g/ha) | % visual injury, observed (Ob) (nutsedge (CYPES); safener alone 2.5 g/ha) | % visual injury, observed (Ob) (nutsedge (CYPES); safener alone 5 g/ha) | % visual injury, observed (Ob) (nutsedge (CYPES); safener alone 10 g/ha) | % visual injury, observed (Ob) (nutsedge (CYPES); safener alone 20 g/ha) | % visual injury, Ob (nutsedge (CYPES); alone, 35 g/ha) | % visual injury, Ob (cleavers (GALAP); 4.375 g/ha, applied alone) | % visual injury, Ob (cleavers (GALAP); 8.75 g/ha, applied alone) | % visual injury, Ob (cleavers (GALAP); 17.5 g/ha, applied alone) | % visual injury, Ob (cleavers (GALAP); 35 g/ha, applied alone) | % visual injury, Ob (cleavers (GALAP); 70 g/ha, applied alone) | % visual injury, Ob (cleavers (GALAP); [5]) | % visual injury, Ob (cleavers (GALAP); [6]) | % visual injury, Ob (cleavers (GALAP); [7]) | % visual injury, Ob (cleavers (GALAP); compound 0 g/ha, CQC-m 35 g/ha) | % visual injury, Ob (cleavers (GALAP); compound 0 g/ha, CQC-m 70 g/ha) | % visual injury, Ob (prickly lettuce (LACSE); LACSE, compound 0, CQC-m 4.375 g/ha) | % visual injury, Ob (prickly lettuce (LACSE); LACSE, compound 0, CQC-m 8.75 g/ha) | % visual injury, Ob (prickly lettuce (LACSE); LACSE, compound 0, CQC-m 17.5 g/ha) | % visual injury, Ob (prickly lettuce (LACSE); LACSE, compound 0, CQC-m 35 g/ha) | % visual injury, Ob (prickly lettuce (LACSE); LACSE, compound 0, CQC-m 70 g/ha) | % visual injury, Ob (prickly lettuce (LACSE); LACSE, compound 0 g/ha, CQC-m 4.375 g/ha) | % visual injury, Ob (prickly lettuce (LACSE); LACSE, compound 0 g/ha, CQC-m 8.75 g/ha) | % visual injury, Ob (prickly lettuce (LACSE); LACSE, compound 0 g/ha, CQC-m 17.5 g/ha) | % visual injury, Ob (prickly lettuce (LACSE); LACSE, compound 0 g/ha, CQC-m 35 g/ha) | % visual injury, Ob (prickly lettuce (LACSE); LACSE, compound 0 g/ha, CQC-m 70 g/ha) | % visual injury, Ob (prickly lettuce (LACSE); alone, 4.375 g/ha) | % visual injury, Ob (prickly lettuce (LACSE); alone, 8.75 g/ha) | % visual injury, Ob (prickly lettuce (LACSE); alone, 17.5 g/ha) | % visual injury, Ob (prickly lettuce (LACSE); alone, 35 g/ha) | % visual injury, Ob (prickly lettuce (LACSE); alone, 70 g/ha) | % visual injury, Ob (shepherd's purse (CAPBP) [3]; compound 0, CQC-m 4.375 g/ha) | % visual injury, Ob (shepherd's purse (CAPBP) [3]; compound 0, CQC-m 8.75 g/ha) | % visual injury, Ob (shepherd's purse (CAPBP) [3]; compound 0, CQC-m 17.5 g/ha) | % visual injury, Ob (shepherd's purse (CAPBP) [3]; compound 0, CQC-m 35 g/ha) | % visual injury, Ob (shepherd's purse (CAPBP) [3]; compound 0, CQC-m 70 g/ha) | % visual injury, Ob (shepherd's purse (CAPBP) [3]; [5]) | % visual injury, Ob (shepherd's purse (CAPBP) [3]; [6]) | % visual injury, Ob (shepherd's purse (CAPBP) [3]; [7]) | % visual injury, Ob (shepherd's purse (CAPBP) [3]; compound 0 g/ha, CQC-m 35 g/ha) | % visual injury, Ob (shepherd's purse (CAPBP) [3]; compound 0 g/ha, CQC-m 70 g/ha) | % visual injury, Ob (cornflower (CENCY) [4]; CENCY, compound 0, CQC-m 4.375 g/ha) | % visual injury, Ob (cornflower (CENCY) [4]; CENCY, compound 0, CQC-m 8.75 g/ha) | % visual injury, Ob (cornflower (CENCY) [4]; CENCY, compound 0, CQC-m 17.5 g/ha) | % visual injury, Ob (cornflower (CENCY) [4]; CENCY, compound 0, CQC-m 35 g/ha) | % visual injury, Ob (cornflower (CENCY) [4]; CENCY, compound 0, CQC-m 70 g/ha) | % visual injury, Ob (cornflower (CENCY) [4]; CENCY, compound 0 g/ha, CQC-m 4.375 g/ha) | % visual injury, Ob (cornflower (CENCY) [4]; CENCY, compound 0 g/ha, CQC-m 8.75 g/ha) | % visual injury, Ob (cornflower (CENCY) [4]; CENCY, compound 0 g/ha, CQC-m 17.5 g/ha) | % visual injury, Ob (cornflower (CENCY) [4]; CENCY, compound 0 g/ha, CQC-m 35 g/ha) | % visual injury, Ob (cornflower (CENCY) [4]; CENCY, compound 0 g/ha, CQC-m 70 g/ha) | % visual injury, Ob (cornflower (CENCY) [4]; alone, 17.5 g/ha) | % visual injury, Ob (cornflower (CENCY) [4]; alone, 70 g/ha)
